Among the data in ChEMBL document CHEMBL1131345, “Synthesis of N-(1-ethyl-4-methylhexahydro-1,4-diazepin-6-yl)nicotinamides and their affinities for 5-HT3 and dopamine D2 receptors” (Bioorg Med Chem Lett, 1998) are IC50 values, retold here.

Experiment [1] concerns the target T1, Serotonin 3 (5-HT3) receptor (Rattus norvegicus, UniProt P35563+Q9JJ16).
T1 sequence (P35563 whole entry): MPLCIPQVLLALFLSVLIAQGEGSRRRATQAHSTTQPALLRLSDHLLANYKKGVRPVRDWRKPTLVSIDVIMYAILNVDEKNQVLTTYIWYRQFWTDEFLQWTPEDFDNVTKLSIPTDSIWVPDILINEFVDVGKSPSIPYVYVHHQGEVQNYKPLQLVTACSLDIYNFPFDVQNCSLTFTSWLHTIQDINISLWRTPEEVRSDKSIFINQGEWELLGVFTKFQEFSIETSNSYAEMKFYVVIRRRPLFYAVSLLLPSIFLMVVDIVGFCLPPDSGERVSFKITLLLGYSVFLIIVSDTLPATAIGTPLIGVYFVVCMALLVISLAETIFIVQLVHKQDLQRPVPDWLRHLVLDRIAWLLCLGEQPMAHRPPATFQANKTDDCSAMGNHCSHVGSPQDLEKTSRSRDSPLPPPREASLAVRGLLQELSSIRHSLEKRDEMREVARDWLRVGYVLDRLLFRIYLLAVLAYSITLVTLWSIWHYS
T1 sequence (Q9JJ16 whole entry): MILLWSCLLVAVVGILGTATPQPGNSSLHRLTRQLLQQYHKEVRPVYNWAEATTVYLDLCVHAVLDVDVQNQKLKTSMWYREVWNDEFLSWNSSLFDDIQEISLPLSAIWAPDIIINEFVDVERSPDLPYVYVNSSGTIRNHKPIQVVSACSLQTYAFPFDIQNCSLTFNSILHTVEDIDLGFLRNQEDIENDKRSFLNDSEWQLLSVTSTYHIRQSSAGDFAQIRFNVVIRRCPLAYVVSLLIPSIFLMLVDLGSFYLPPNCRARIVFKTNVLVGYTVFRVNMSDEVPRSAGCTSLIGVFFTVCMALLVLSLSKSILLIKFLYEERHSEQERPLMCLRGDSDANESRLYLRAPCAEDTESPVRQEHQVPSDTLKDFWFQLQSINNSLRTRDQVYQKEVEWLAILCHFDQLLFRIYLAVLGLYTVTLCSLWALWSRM
Briefly: Inhibition of [3H]GR-65630 binding to rat cortical membrane 5-hydroxytryptamine 3 receptor.

The target of experiment [2] is D(2) dopamine receptor (Rattus norvegicus, UniProt P61169). Briefly: Inhibition of [3H]- spiperone binding to rat brain Dopamine receptor D2.

As a reminder, the IC50 is the concentration at which inhibition is half-maximal. Low readings indicate greater potency in that assay, high ones weaker potency in that assay.

Sequence of D(2) dopamine receptor (P61169 whole entry): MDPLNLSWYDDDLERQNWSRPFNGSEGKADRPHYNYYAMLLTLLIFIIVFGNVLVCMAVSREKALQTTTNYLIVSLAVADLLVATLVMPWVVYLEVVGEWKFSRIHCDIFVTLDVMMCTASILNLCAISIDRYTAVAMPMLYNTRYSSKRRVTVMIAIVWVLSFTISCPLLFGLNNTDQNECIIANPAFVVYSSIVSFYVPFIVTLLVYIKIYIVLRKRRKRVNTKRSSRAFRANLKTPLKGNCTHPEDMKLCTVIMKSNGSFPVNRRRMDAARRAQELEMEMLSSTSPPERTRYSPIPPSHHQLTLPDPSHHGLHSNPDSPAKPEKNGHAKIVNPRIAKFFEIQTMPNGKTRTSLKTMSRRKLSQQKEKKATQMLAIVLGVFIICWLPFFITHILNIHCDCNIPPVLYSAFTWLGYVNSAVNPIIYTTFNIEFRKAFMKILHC

Regarding `CCNc1nc(OC)c(C(=O)NC2CN(C)CCN(CC)C2)cc1Br` (stereo not drawn), the values for the concentration for half-maximal inhibition (IC50) in experiment [1] and in experiment [2] were 3.8 nM and 48 nM, respectively. As for `CCN1CCN(C)CC(NC(=O)c2cc(Cl)c(N)nc2OC)C1` (stereo not drawn), the IC50 came to 5.1 nM in experiment [1] and 386 nM in experiment [2]. The like results for `CCN1CCN(C)CC(NC(=O)c2cc(Br)c(N(C)C)nc2OC)C1` (stereo not drawn) were, in that order, 9.9 nM and 75 nM. The matching figures for `CCNc1nc(OC)c(C(=O)NC2CN(C)CCN(CC)C2)cc1Cl` (stereo not drawn): 2 nM and 76 nM.

For the molecule `CCN1CCN(C)C[C@@H](NC(=O)c2cc(Cl)c(NC)nc2OC)C1`, the IC50 in experiment [1] was 1.6 nM; in experiment [2] it was 18 nM. The matching figures for `CCN1CCN(C)CC(NC(=O)c2cc(Cl)c(NC)nc2OC)C1` (stereo not drawn): 1.3 nM and 43 nM. `CCN1CCN(C)C[C@@H](NC(=O)c2cc(Cl)c(NC)cc2OC)C1`: the figures for the concentration for half-maximal inhibition (IC50) in experiment [1] and in experiment [2] were 2.9 nM and 35 nM, respectively. The like results for `CCN1CCN(C)C[C@H](NC(=O)c2cc(Br)c(NC)nc2OC)C1` were, in that order, 1.2 nM and 81 nM. For the molecule `CCN1CCN(C)CC(NC(=O)c2cc(Br)c(NC)nc2OC)C1` (stereo not drawn), the IC50 amounted to 1 nM in experiment [1] and 23 nM in experiment [2].

In the case of `CCN1CCN(C)C[C@@H](NC(=O)c2cc(Br)c(NC)nc2OC)C1`, the IC50 in experiment [1] was 1.1 nM; in experiment [2] it was 12 nM. The matching figures for `CCN1CCN(C)C[C@H](NC(=O)c2cc(Cl)c(NC)nc2OC)C1`: 2.1 nM and 202 nM. For `CCN(CC)CCNC(=O)c1cc(Cl)c(N)cc1OC` [METOCLOPRAMIDE], the half-maximal inhibitory concentration (IC50) in experiment [1] came out at 880 nM. That is a sub-micromolar value.
